This is an account of results in article PMC10012588, “Engineering Streptomyces albulus to enhance ε-poly-L-lysine production by introducing a polyphosphate kinase-mediated ATP regeneration system” (Microbial Cell Factories, 2023).

Holding throughout (type): biochemical
The target of test [1] is T1, PPK1 (Streptomyces noursei, UniProt A0A2N8P4S7).
T1 construct: gene ppk; gene amplified from the WG608 genome
The experiment in a line: change of ATP concentration, reverse reaction. The following applies: 0-10 uM ATP, 5 uM ADP, 5 uM polyP6, 20 mM MgSO4, 50 mM Tris-HCl pH 8.0, 30 °C, 2 h.

For test [2], the target named is T1, PPK1. Nature of the test: ATP formation from ADP and polyPn. The note with it: 5 uM ADP, 5 uM polyP (polyP6 best), 20 mM MgSO4, 50 mM Tris-HCl pH 8.0, 30 °C, 2 h.
Test [3] addresses PPK2B^cg (Corynebacterium glutamicum, UniProt Q8NM65). The experiment in a line: ATP formation from ADP and polyPn. The note with it: 5 uM ADP, 5 uM polyP (polyP6 best), 20 mM MgSO4, 50 mM Tris-HCl pH 8.0, 30 °C, 2 h.
The target of test [4] is T2, PPK2C^pa (Pseudomonas aeruginosa, UniProt Q9HYF1).
T2 construct: gene PA3455
T2 sequence (Q9HYF1 1-496): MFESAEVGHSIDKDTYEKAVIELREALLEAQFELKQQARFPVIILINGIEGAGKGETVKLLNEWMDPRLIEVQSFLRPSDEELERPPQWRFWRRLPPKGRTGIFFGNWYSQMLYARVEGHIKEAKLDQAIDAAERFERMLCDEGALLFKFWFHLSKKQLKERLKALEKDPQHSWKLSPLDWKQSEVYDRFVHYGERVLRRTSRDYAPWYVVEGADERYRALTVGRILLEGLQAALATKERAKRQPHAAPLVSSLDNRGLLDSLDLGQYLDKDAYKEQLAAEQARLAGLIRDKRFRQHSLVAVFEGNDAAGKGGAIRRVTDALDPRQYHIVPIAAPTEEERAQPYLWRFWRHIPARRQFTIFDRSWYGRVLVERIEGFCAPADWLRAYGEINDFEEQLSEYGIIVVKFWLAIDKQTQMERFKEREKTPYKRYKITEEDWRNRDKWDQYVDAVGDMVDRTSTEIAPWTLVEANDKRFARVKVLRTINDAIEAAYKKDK
The experiment in a line: ATP formation from ADP and polyPn. The following applies: 5 uM ADP, 5 uM polyP (polyP6 best), 20 mM MgSO4, 50 mM Tris-HCl pH 8.0, 30 °C, 2 h.

On to `Nc1ncnc2c1ncn2[C@@H]1O[C@H](COP(=O)(O)OP(=O)(O)OP(=O)(O)O)[C@@H](O)[C@H]1O` [ATP], for which, in test [1], the “change of ATP concentration, reverse reaction” value is “PPK1 catalyzes polyP6 polymerization and ATP is degraded into ADP”.

Regarding `Nc1ncnc2c1ncn2[C@@H]1O[C@H](COP(=O)(O)OP(=O)(O)O)[C@@H](O)[C@H]1O` [ADP], the “ATP formation from ADP and polyPn” value in test [2] is “The activities of the three PPKs were compared in vitro using ADP, and different polyPs”; in test [3], “PPK2B^cg exhibited the highest ATP production ability”; in test [4], “The activities of the three PPKs were compared in vitro using ADP, and different polyPs”.
